{
  "source": "patent US20040103453A1",
  "about": "“Lipoxygenase genes, promoters, transit peptides and proteins thereof” (priority 2000, published 2004)",
  "key": {"[1]": {"system": "RLL2 transcripts", "assay": "RNA gel blot probed with rice LOX cDNA RLL2", "assay_type": "in vivo", "details": "RNA from treated rice plants"}, "[2]": {"system": "RCI-1 transcripts", "assay": "RNA gel blot (Northern) analysis of RCI-1 transcripts in treated rice leaves", "assay_type": "in vivo, Oryza sativa cv. Kusabue", "details": "for RCI-1 transcript (mRNA) accumulation: RNA from chemically treated rice leaves, INA and BTH sprayed onto leaves, probenazole by soil drench"}, "[3]": {"system": "lipoxygenase (LOX) enzyme activity in rice leaves", "assay": "LOX enzyme activity in BTH-treated rice leaves", "assay_type": "in vivo, Oryza sativa cv. Kusabue", "details": "between 24 and 48 h after BTH treatment"}, "[4]": {"system": "L-2 transcripts", "assay": "RNA gel blot probed with rice LOX cDNA L-2", "assay_type": "in vivo", "details": "RNA from treated rice plants"}, "[5]": {"system": "lipoxygenase (LOX, linoleate:oxygen oxidoreductase, EC 1.13.11.12)", "details": "treatment of rice; cited from earlier work"}, "[6]": {"system": "rice blast disease", "details": "treatment of rice; cited from earlier work"}, "[7]": {"assay": "Photospectrometric lipoxygenase activity of recombinant RCI-1 enzyme extract", "details": "linoleic acid as substrate", "description": "Production of recombinant RCI-1 protein is induced by addition of 1 mM IPTG (final concentration) to a 250 ml E. coli M15 culture grown to an OD600 of 1 and further incubation on a shaker overnight at 19° C. The cells are harvested by centrifugation (5000 g, 10 minutes) and resuspended in 5 ml lysis buffer (50 mM Na-phosphate buffer pH 7.5 containing 1 mg l-1 lysozyme). After a 30 minute incubation on ice, the lysate is centrifuged (12000 g, 15 minutes) and the pellet is transferred into a mortar and ground in extraction buffer (0.1 M K-phosphate buffer pH 7, 30 mg polyvinyl-poly-pyrrolidone, 1 mM EDTA). After centrifugation, the clear supernatant is used as an enzyme preparation for further biochemical analysis.\nLipoxygenase activity is measured at 30° C. photospectrometrically at 234 nm using linoleic acid as a substrate and 5-20 μl from the recombinant RCI-1 enzyme extract (Bohland et al. (1997) Plant Physiol. 114, 679-685). For determination of the pH optimum, different buffers with overlapping pH ranges (pH 4-6: 0.1 M Na-acetate; pH 6-8: 0.1 M Na-phosphate; pH 8-10: 0.1 M Tris-HCl) are used. The molar extinction coefficient of the reaction product, 2.5×10^7 cm^−1 mol^−1, is used for the calculation of the enzyme activity."}, "[8]": {"assay": "HPLC analysis of reaction products of recombinant RCI-1", "details": "linoleic acid or linolenic acid as substrate, 0.1 M Tris-HCl pH 8.8, 20 min, 30° C.", "description": "Lipoxygenase activity is measured at 30° C. photospectrometrically at 234 nm using linoleic acid as a substrate and 5-20 μl from the recombinant RCI-1 enzyme extract (Bohland et al. (1997) Plant Physiol. 114, 679-685). For determination of the pH optimum, different buffers with overlapping pH ranges (pH 4-6: 0.1 M Na-acetate; pH 6-8: 0.1 M Na-phosphate; pH 8-10: 0.1 M Tris-HCl) are used. The molar extinction coefficient of the reaction product, 2.5×10^7 cm^−1 mol^−1, is used for the calculation of the enzyme activity. […] The products of the enzymatic activity of the RCI-1 protein are analyzed by HPLC (Bohland et al. (1997) Plant Physiol. 114, 679-685). Approximately 0.2 nkat enzyme activity obtained from recombinant RCI-1 protein is incubated with 50 μl substrate solution (10 μl of linoleic or α-linolenic acid, respectively; 20 μl ethanol, 20 μl H2O) in 2 ml 0.1 M Tris-HCl pH 8.8 for 20 min. at 30° C. The reaction is stopped by lowering the pH to 3.0 with diluted HCl, and the hydroperoxides are extracted with 1 ml of CHCl3 followed by two washes with water. […] Products are detected at 234 nm and standards are obtained from Biomol (Hamburg, Germany) or prepared from linoleic or α-linolenic acid by incubation with soybean lipoxygenase, respectively, as described (Bohland et al. (1997) Plant Physiol. 114, 679-685)."}, "[9]": {"details": "rice leaves treated with INA, time course, RNA gel blot"}},
  "note": "Entries after “also recorded” stand apart in the source; their conditions may differ.",
  "data": [
    {"molecule": "CSC(=O)c1cccc2nnsc12", "note": "[BTH, benzo(1,2,3)thiadiazole-7-carbothioic acid S-methyl ester]", "values": [
      {"measurement": "RLL2 transcript accumulation", "setting": "[1]", "value": "do not accumulate"},
      {"measurement": "RCI-1 transcript (mRNA) accumulation", "setting": "[2]", "value": "induces RCI1 transcript accumulation; also recorded: strong hybridization signal"},
      {"measurement": "LOX enzymatic activity in rice leaves", "setting": "[3]", "value": "significant increase"},
      {"measurement": "L-2 transcript accumulation", "setting": "[4]", "value": "do not accumulate"}
    ]},
    {"molecule": "O=C(O)c1cc(Cl)nc(Cl)c1", "note": "[INA, 2,6-dichloroisonicotinic acid]", "values": [
      {"measurement": "RLL2 transcript accumulation", "setting": "[1]", "value": "do not accumulate"},
      {"measurement": "RCI-1 transcript (mRNA) accumulation", "setting": "[2]", "value": "strong hybridization signal"},
      {"measurement": "time after treatment at which RCI-1 transcripts reach maximal levels", "setting": "[2]; [9]", "value": "24 to 48", "unit": "h"},
      {"measurement": "time after treatment at which RCI-1 transcripts start to accumulate", "setting": "[2]; [9]", "value": 8, "unit": "h"},
      {"measurement": "L-2 transcript accumulation", "setting": "[4]", "value": "do not accumulate"}
    ]},
    {"molecule": "N#CCNC(=O)c1ccnc(Cl)c1", "note": "[N-cyanomethyl-2-chloroisonicotinamid]", "values": [
      {"measurement": "induction of the enzyme lipoxygenase", "setting": "[5]", "value": "induced the enzyme lipoxygenase"},
      {"measurement": "resistance inducing activity against rice blast disease", "setting": "[6]", "value": "good resistance inducing activity"}
    ]},
    {"molecule": "CC/C=C\\C[C@H]1C(=O)CC[C@@H]1CC(=O)O", "note": "[jasmonic acid]", "values": [
      {"measurement": "RCI-1 transcript levels", "setting": "[2]; 7 to 12 h after spraying of a 1 mM solution onto rice leaves", "value": "strongly increase"},
      {"measurement": "RCI-1 transcript (mRNA) accumulation", "setting": "[2]", "value": "strong hybridization signal"}
    ]},
    {"molecule": "C=CCOC1=NS(=O)(=O)c2ccccc21", "note": "[probenazole]", "values": [
      {"measurement": "RLL2 transcript accumulation", "setting": "[1]", "value": "do not accumulate"},
      {"measurement": "RCI-1 transcript (mRNA) accumulation", "setting": "[2]", "value": "induces RCI1 transcript accumulation; also recorded: strong hybridization signal"},
      {"measurement": "time course of RCI-1 mRNA accumulation", "setting": "[2]; probenazole soil drench, compared with INA and BTH spraying", "value": "delayed time course"},
      {"measurement": "L-2 transcript accumulation", "setting": "[4]", "value": "do not accumulate"}
    ]},
    {"molecule": "RCI-1: rice lipoxygenase protein of 922 amino acids (SEQ ID NO:7) encoded by RCI-1 cDNA, expressed recombinantly in E. coli (protein, listed as Oryza sativa) MLTATQTLAPAVLSRSHGAPSSFSSQPRRTAAAASRVSCTRVGALSEVVNGELVVGDQEQTTDDLLTRHKNVVADYTLSATVTVSLKQDDSTPQKVADMVNRDWLFLDFFSSHIEGMHTEPQLARYSHMDGKGSFIYEASFSIPSSLDAVGAVQVVNRYSSEVYISDIDVHLCGGRHQWTDITFHCNSWIDYNPNDQRFFFPLKSYLPSQTPRGVKNLRKEELRAIRGDGRGERKEWERIYDYDVYNDLGDPDNDPATRRPVLGGRGRPYPRRCRTGRRRCRTDPSSESPPAKDGAGIYVPRDEAFTERKAGAFATKKALSALSAFTTAQRVSGDRRRGFPSLAAIDALYEDGYKNRPSSSQQEADNLEGYFREVLQKQVKLLLKGEKEEFKEELRKVFKFQTPEIHDKDKLAWFRDEEFARQTLAGMNPLSIQLVRDTDFPIFSKLDEETYGPGDSLITKELIEEQINGVMTAEEAVEKKKLFMLDYHDVLLPFVHAVRELDDTTLYASRTLFFLTEDGTLRPIAIELTRPKSPNTPQWRQVFTPGSSVAASWLWQLAKTHVLAHDTGYHQLVSHWLRTHCCVEPYVIAANRRLSQMHPIYRLLHPHFRFTMEINAQARGMLINANGIIESAFAPGKLCMELSSAVYDKFWRFDMEALPADLIRRGMAIECEDGKLELTIEDYPYANDGLLIWDSIKEWVSDYVNHYYQLASDIHMDKELQGWWNEVRTKGHPDKEEGWPELNCHGSLVEVLTTIIWVASGHHAAVNFGQYPYAGYFPNRPTIARRNMPTEGQACSHDGMQPTFVEDPVRVLLDTFPSQYQTTLVLPVLNLLSSHSPGEEYMGTHAESAWMADREVRAAFGRFNERMMSIAEMIDCRNKDPERKNRQGPGVVPYVLLKPSYGDPKDMTSVMEMGIPNSISI", "values": [
      {"measurement": "LOX activity of crude E. coli extract", "setting": "[7]; 30° C., 234 nm, control extracts no detectable LOX activity", "value": "increased LOX activity"},
      {"measurement": "pH of maximal LOX activity", "setting": "[7]; buffers pH 4-10", "value": "8 to 9", "unit": "pH"},
      {"measurement": "reaction product (9S)-hydroperoxy-(10E,12Z,15Z) octadecatrienoic acid (9-HPOD)", "setting": "[8]", "value": "only detected in minor amounts"},
      {"measurement": "reaction product (13S)-hydroperoxy-(9Z,11E,15Z)-octadecatrienoic acid (13-HPOD)", "setting": "[8]", "value": "predominant product"}
    ]}
  ]
}
